Experimental data published in patent EP1660440B1, “ACYLOXYALKYL CARBAMATE PRODRUGS, METHODS OF SYNTHESIS AND USE” (priority 2003, dated 2005).
Where two headings read alike, the source gives them in different places.

Columns and labels:
[1] = aqueous buffer, 1 h
Experimental: (§1) The stabilities of prodrugs were evaluated in one or more in vitro systems using a variety of tissue preparations following methods known in the art. The chemical stability of prodrugs in aqueous buffers at pH's of 2.0, 7.4 and 8.0 were also measured. […] Each preparation was incubated with test compound at 37°C for one hour. Aliquots (50 µL) were removed at 0, 30, and 60 min and quenched with 0.1 % trifluoroacetic acid in acetonitrile.

[2] = human, s9, 1 h, 5 µM
Experimental: For stability studies, prodrug (5 µM) was incubated in Caco-2 homogenate S9 fraction (0.5 mg protein per mL) for 60 min at 37°C. Concentrations of intact prodrug and released baclofen were determined at zero time and 60 minutes using LC/MS/MS.

[3] = human, s9, 1 h, 2 µM
Experimental: as §1

[4] = human, plasma, 1 h, 2 µM
Experimental: as §1

[5] = rat, plasma, 1 h, 2 µM
Experimental: as §1

Pancreatin = Pancreatin stability; format: in vitro ADME, porcine; details: 1 % (w/v) pancreatin, 5 µM, pH 7.5, 37 °C, after 60 min
Experimental: Pancreatin Stability: Stability studies were conducted by incubating prodrug (5 µM) with 1 % (w/v) pancreatin (Sigma, P-1625, from porcine pancreas) in 0.025 M Tris buffer containing 0.5 M NaCl (pH 7.5) at 37 °C for 60 min. The reaction was stopped by addition of 2 volumes of methanol. After centrifugation at 14,000 rpm for 10 min, the supernatant was removed and analyzed by LC/MS/MS.

[6] = rat, s9, 1 h, 2 µM
Experimental: as §1

| Structure (SMILES) | % of Baclofen Released ([1]; pH 2) | % of Prodrug Remaining ([1]; pH 2) | % of Baclofen Released ([1]; pH 7.4) | % of Prodrug Remaining ([1]; pH 7.4) | % of Baclofen Released ([1]; pH 8) | % of Prodrug Remaining ([1]; pH 8) | % of Baclofen Released [2] | % of Prodrug Remaining [2] | % of Baclofen Released [3] | % of Prodrug Remaining [3] | % of Baclofen Released [4] | % of Prodrug Remaining [4] | % of Baclofen Released [5] | % of Prodrug Remaining [5] | % of Baclofen Released (Pancreatin) | % of Prodrug Remaining (Pancreatin) | % of Baclofen Released [6] | % of Prodrug Remaining [6] |
| --- | --- | --- | --- | --- | --- | --- | --- | --- | --- | --- | --- | --- | --- | --- | --- | --- | --- | --- |
| CC(=O)OC(OC(=O)NC[C@H](CC(=O)[O-])c1ccc(Cl)cc1)C(C)C.[Na+] (stereo partly drawn) [(23), Sodium 4-[(1-Acetoxylsobutoxy)carbonylamino]1-(3R)-(4-chlorophenyl)-butanoate] | 0% | 107% | 1% | 89% | 2% | 90% | 87% | 15% | 105% | 4% | 3% | 96% | 93% | 11% | 24% | 82% | 107% | 3% |
| CC(C)C(=O)OC(OC(=O)NC[C@H](CC(=O)[O-])c1ccc(Cl)cc1)C(C)C.[Na+] (stereo partly drawn) [(25), Sodium 4-[(1-Isobutanoyloxyisobutoxy)carbonylamino]-(3R)-(4-chlorophenyl)-butanoate] | 0% | 101% | 0% | 100% | 0% | 100% | 95% | 2% | 91% | 4% | 4% | 93% | 96% | 5% | 84% | 22% | 98% | 1% |
| CC(OC(=O)NC[C@H](CC(=O)[O-])c1ccc(Cl)cc1)OC(=O)C(C)C.[Na+] (stereo partly drawn) [(33), Sodium 4-[(1-Isobutanoyloxyethoxy)carbonylamino]-(3R)-(4-chlorophenyl)-butanoate] | 0% | 100% | 0% | 72% | 0% | 101% | 95% | 3% | 101% | 3% | 4% | 96% | 30% | 73% | 52% | 46% | 101% | 4% |
| CC(C)C(=O)O[C@H](C)OC(=O)NC[C@H](CC(=O)[O-])c1ccc(Cl)cc1.[Na+] [(34), Sodium 4-{[(1S)-Isobutanoyloxyethoxy]-carbonylamino}-(3R)-(4-chlorophenyl) -butanoate] | 0% | 100% | 0% | 100% | 0% | 100% | 100% | 2% | 100% | 3% | 2% | 90% | 18% | 78% | 18% | 81% | 100% | 1% |
| O=C([O-])C[C@@H](CNC(=O)OCOC(=O)c1cccs1)c1ccc(Cl)cc1.[Na+] [(57), Sodium 4-[(2-Thienylcarbonyloxymethoxy)carbonylamino]-(3R)-(4-chlorophenyl)-butan oate] | 0% | 100% | 0% | 100% | 0% | 100% | 104% | 2% | 86% | 1% | 14% | 73% | 10% | 82% | 75% | 12% | 78% | 2% |
| CC(C)CC(=O)OCOC(=O)NC[C@H](CC(=O)[O-])c1ccc(Cl)cc1.[Na+] [(59), Sodium 4-[(3-Methylbutanoyloxymethoxy)carbonylamino]-(3R)-(4-chlorophenyl)-butano ate] | 0% | 103% | 1% | 103% | 2% | 97% | 104% | 3% | 82% | 1% | 11% | 77% | 85% | 2% | 50% | 46% | 85% | 2% |
| CC(C)C(=O)OC(OC(=O)NC[C@H](CC(=O)[O-])c1ccc(Cl)cc1)C1CCCCC1.[Na+] (stereo partly drawn) [(84), Sodium 4-[(1-Isobutanoyloxy-1-cyclohexylmethoxy)carbonylamino]-(3R)-(4-chlorophenyl)-butanoate] | 0% | 85% | 0% | 84% | 1% | 94% | 76% | 13% | 82% | 2% | 4% | 89% | 11% | 91% | 40% | 47% | 91% | 4% |
| CCCC(=O)OC(OC(=O)NC[C@H](CC(=O)[O-])c1ccc(Cl)cc1)C1CCCCC1.[Na+] (stereo partly drawn) [(85), Sodium 4-[(1-Butanoyloxy-1-cyclohexylmethoxy)carbonylamino]-(3R)-(4-chlorophenyl)-butanoate] | 0% | 82% | 0% | 92% | 0% | 93% | 82% | 4% | 84% | 2% | 4% | 95% | 12% | 82% | 64% | 15% | 91% | 2% |
| CCC[C@H](OC(=O)NC[C@H](CC(=O)[O-])c1ccc(Cl)cc1)OC(=O)C(C)C.[Na+] [(91), Sodium 4-{[(1S)-Isobutanoyloxybutoxy]carbonylamino}-(3R)-(4-chlorophenyl)-butanoate] | 0% | 100% | 0% | 97% | 1% | 94% | 107% | 6% | 78% | 1% | 2% | 83% | 10% | 80% | 78% | 11% | 70% | 22% |
| CC(C)C(=O)O[C@H](OC(=O)NC[C@H](CC(=O)[O-])c1ccc(Cl)cc1)C(C)C.[Na+] [(100), Sodium 4-{[(1R)-Isobutanoyloxyisobutoxy]carbonylamino}-(3R)-(4-chlorophenyl) -butanoate] | 0% | 101% | 0% | 98% | 0% | 95% | 90% | 7% | 83% | 1% | 3% | 89% | 64% | 9% | 27% | 68% | 85% | 3% |
